From publication PMC10229078, “In vitro effects of lapachol and β-lapachone against Leishmania amazonensis” (Brazilian Journal of Medical and Biological Research, 2023)
Converted amounts (≈) assume the structure as drawn. “And” between values parts separate entries of the source, which are not always exact repeats. Identical values can stand only once.

How the values were obtained:
[1] = system: Leishmania amazonensis promastigotes; test: Viability assay of promastigotes, XTT colorimetric method (LD50); format: cell-based, Leishmania amazonensis (MHOM/BR/1977/LTB0016); settings: 25°C
Method: The viability of L. amazonensis (MHOM/BR/1977/LTB0016) promastigotes was evaluated using the XTT colorimetric method, which consists in the XTT salt degradation by the mitochondria forming formazan crystals. Promastigote forms (2×10^7 parasites/mL) from a culture in logarithmic growth phase were incubated with lapachol and β-lapachone diluted in 199 culture medium. The drugs were diluted in series, in a ratio of two, starting from 1/2, on a 96-well cell culture plate (TPP™ test plate, Switzerland). The compounds were tested at concentrations from 204.4 to 0.40 µg/mL (lapachol) and 157.5 to 0.31 µg/mL (β-lapachone). After 24, 48, and 72 h of incubation at 25°C, 100 μL of the XTT solution (500 μg/mL) activated with PMS (50 μg/mL) were added to each well and incubated for 4 h at 37°C. The result was measured by absorbance, determined by spectrophotometry (450/650 nm filter, VersaMax™ ELISA microplate reader, USA). The lethal dose (LD50) was defined as the concentrations of the compounds that reduced survival of L. amazonensis by 50% compared to untreated parasites in culture medium. AmB (1.96 to 0.25 µg/mL) was used as positive control of leishmanicidal activity. The therapeutic selectivity index (TSI CC50/LD50) was calculated by the ratio of toxicity to macrophage vs toxicity to parasites after 24 h incubation ([28]). All assays were performed in triplicate and repeated at least three times.

[2] = system: L. amazonensis (strains MHOM/BR/1989/ BA199); set-up: method as in ref 23 Guimarães et al.; settings: 72 h, strain MHOM/BR/1989/BA199, ref 23 Guimarães et al.; cited from earlier work
[3] = system: L. amazonensis amastigotes
Method: The activity of lapachol and β-lapachone on intracellular amastigotes was made on peritoneal macrophages (5×10^5 per well). Cells were seeded onto round glass coverslips within 24-well plates in RPMI 1640 medium and incubated for 2 h at 37°C in 5% CO2. After that, the proportion of 6 parasites (L. amazonensis) per macrophage were added, and cultures were incubated for 4 h at 37°C in 5% CO2. Free parasites were removed by washing with RPMI 1640 medium. The infected macrophages were incubated with lapachol (82.28, 41.14, and 20.57 µg/mL) and β-lapachone (3.26, 1.63, and 0.815 µg/mL) for 24 h at 37°C. After the incubation time, the coverslips were removed, washed, stained with Fast Panoptic, and fixed on glass slides with Entellan. […] The experiments were done twice in triplicate, and treated uninfected cells were used as the cytotoxicity control and non-treated infected cells were used as the positive control of infection. The number of intracellular amastigotes was determined by counting 200 macrophages by concentration in an optical microscope (binocular biological microscope, mod. BA310E LED, Motic, Spain). The infection index was calculated by multiplying the percentage of infected macrophages by the number of parasites per macrophages ([29]).

[4] = system: amastigotes of L. (V.) braziliensis (MHOM/BR/94/H-3227); set-up: method as in ref 18 Teixeira et al.; settings: 50 µg/mL, ref 18 Teixeira et al.; cited from earlier work
[5] = system: Peritoneal macrophages from BALB/c mice; test: Macrophage cytotoxicity, XTT, peritoneal macrophages
Method: Peritoneal macrophages from BALB/c mice were obtained as described before and adjusted to 1×10^6 macrophages/mL and plated in 96-well culture plates (TPP™ test plate, Switzerland), followed by 2 h of incubation (5% CO2 at 37°C). […] Cultures were incubated for 24 h at 37°C in 5% CO2, and non-treated cultures were used as viability control. […] After 4 h of incubation in 5% CO2 at 37°C protected from light, the results were measured as absorbance, determined by spectrophotometry (450/620 nm filter, VersaMax™ ELISA microplate reader) ([28]). […] At least three experiments were performed in quadruplicate.

[6] = system: L. amazonensis promastigotes; test: Externalized phosphatidylserine, annexin V-FITC/PI; format: cell-based, Leishmania amazonensis; settings: lapachol 76.62 µg/mL, β-lapachone 1.63 µg/mL; for Annexin labeling (AnV+, PI-): 4 h; for Annexin labeling (AnV+, PI-), change on longer incubation: 24 h
Method: […] After treatment, the cells were centrifuged (901 g for 10 min) at room temperature and washed in PBS. According to the manufacturer's instructions, annexin V-FITC and PI (Sigma-Aldrich) were added. Data were acquired using the BD FacsCalibur™ flow cytometer (FL1 vs FL2) and CellQuest Pro software, with a total of 10,000 events acquired for analysis of results.

[7] = Macrophage cytotoxicity, XTT, J774A.1; settings: mouse, J774A.1 macrophages
[8] = system: Leishmania major promastigotes; set-up: method as in ref 24 Moreno et al.; settings: 48 h of incubation, ref 24 Moreno et al.; cited from earlier work

| Compound | Promastigotes LD50 ([1]; 24 h incubation) | Promastigotes LD50 ([1]; 24 h incubation, listed as Lapachol (1)) | Promastigotes LD50 ([1]; 48 h incubation) | Promastigotes LD50 ([1]; 72 h incubation) | IC50 [2] | inhibition [3] | Inhibition of the infection rate of amastigotes [4] | Murine macrophage cytotoxicity CC50 ([5]; peritoneal macrophages, 24 h) | Annexin labeling (AnV+, PI-) [6] | Annexin labeling (AnV+, PI-), change on longer incubation [6] | Promastigotes LD50 ([1]; 24 h incubation, listed as β-lapachone (2)) | CC50 at 24 h [7] | Selectivity index (SI CC50/IC50) ([5]; murine macrophage CC50 / promastigote IC50, 24 h) | Therapeutic selectivity index (TSI CC50/LD50) ([5]; murine macrophage CC50 / promastigote LD50, 24 h) | times more selective than lapachol for Leishmania death (TSI) ([5]; murine macrophages) | times more selective than lapachol for inhibiting the growth of Leishmania culture (SI) ([5]; murine macrophages) | IC50 [8] |
| --- | --- | --- | --- | --- | --- | --- | --- | --- | --- | --- | --- | --- | --- | --- | --- | --- | --- |
| 4-hydroxy-3-(3-methylbut-2-enyl)naphthalene-1,2-dione [lapachol] | 75.60 µg/mL | 75.60 ± 6.12 µg/mL | 72.82 µg/mL and 72.82 ± 12.99 µg/mL | 58.85 µg/mL and 58.85 ± 6.43 µg/mL | 102000 nM | 57.6% | 88.8% | 41.14 ± 2.17 µg/mL | 8.57% | not possible to observe the increase | – | – | – | – | – | – | – |
| CC1(C)CCC2=C(O1)c1ccccc1C(=O)C2=O [β-lapachone, 2,2-dimethyl-3,4-dihydrobenzo[h]chromene-5,6-dione] | 0.65 µg/mL and 0.65 ± 0.18 µg/mL | – | 1.24 µg/mL and 1.24 ± 0.19 µg/mL | 0.71 µg/mL and 0.71 ± 0.03 µg/mL | 1390 nM | – | – | – | 9.03% | not possible to observe the increase | 0.65 ± 0.18 µg/mL | 3.18 ± 0.04 µg/mL (≈ 13.1 µM) | 1.97 | 4.94 | 9.15 times | 3.65 times | 1500 ± 700 nM |
